Results from patent US20250161271A1, “PHARMACEUTICAL COMPOSITION FOR TREATING CANCER, COMPRISING ANTICANCER AGENT AND NOVEL COMPOUND HAVING INHIBITORY ACTIVITY WITH RESPECT TO PROSTAGLANDIN E2 RECEPTORS” (KANAPH THERAPEUTICS INC., priority 2022, published 2025).
Values belong to the molecule of their own block, whether it stands above or below them.

Columns and labels:
[1] = molecular target: T1, hEP4 (Homo sapiens, UniProt P35408); assay: hEP4 cAMP assay; assay type: cell-based; settings: HEK293 cells overexpressing hEP4; PGE2 20 nM as agonist; median of multiple experiments; read-out: IC50 (nM) EP4 cAMP
T1 construct: expressed in transfected cells; host or cells: HEK293
T1 sequence (P35408 whole entry): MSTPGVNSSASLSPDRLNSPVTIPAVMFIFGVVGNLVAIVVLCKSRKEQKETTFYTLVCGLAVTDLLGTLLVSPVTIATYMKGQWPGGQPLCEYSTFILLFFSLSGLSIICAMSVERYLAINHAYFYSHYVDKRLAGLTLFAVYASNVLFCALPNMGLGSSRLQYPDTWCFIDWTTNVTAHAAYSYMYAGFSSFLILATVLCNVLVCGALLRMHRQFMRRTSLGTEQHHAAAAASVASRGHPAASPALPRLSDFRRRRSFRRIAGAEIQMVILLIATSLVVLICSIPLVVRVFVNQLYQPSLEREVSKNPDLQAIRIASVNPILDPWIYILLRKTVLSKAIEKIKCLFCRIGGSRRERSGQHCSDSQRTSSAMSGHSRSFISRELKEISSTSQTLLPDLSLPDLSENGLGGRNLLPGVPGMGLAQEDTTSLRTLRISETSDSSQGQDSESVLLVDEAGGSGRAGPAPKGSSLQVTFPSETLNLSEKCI
Method: Experimental Example 1.2: hEP4 cAMP Assay
(§1) HEK293 cells overexpressing hEP4 were cultured in growth medium (GM:MEM (Gibco™, 11095080)/10% HI FBS (Gibco™, 10082147)/1% penicillin/streptomycin). Before the experiment, the growth medium was removed, and starvation medium (HBSS (Gibco™ 14025076)/10% GM) was added. Thereafter, the cells were incubated for 4 hours. HEK293 cells harboring hEP4 were detached from the culture dish with a non-enzymatic cell dissociation buffer (Gibco™, 15040066). The cells were resuspended in assay buffer (AB:HBSS, 0.1% BSA stabilizer, 0.5 mM IBMX, 5 mM HEPES).
(§2) 1,000 cells in 5 μL of AB were seeded per well in a 384 well plate (Corning®, 3570), and stock solutions of test compounds were prepared at a concentration of 1 mM in DMSO and serially diluted in DMSO to the concentration required for the inhibition dose response curve (test concentration range of […]-0.001 nM). […]
(§3) 5 μL of each donor (Eu-cAMP tracer) and acceptor (ULight-anti-cAMP) was added, and the plate was incubated in the dark for 1 hour at room temperature, and then a Varioskan LUX multimode microplate reader was used to obtain the results (excitation: 334 nm, emission: 615 and 665 nm). The resulting FRET fluorescence value (665 nm/615 nm*10000) was converted and then calculated as a percentage of cAMP compared to the DMSO control value. […]

[2] = molecular target: T2, hEP2 (Homo sapiens, UniProt P43116); assay: hEP2 cAMP assay; assay type: cell-based; settings: HEK293 cells overexpressing hEP2; PGE2 400 pM as agonist; median of multiple experiments; read-out: IC50 (nM) EP2 cAMP
T2 construct: expressed in transfected cells; host or cells: HEK293
T2 sequence (P43116 whole entry): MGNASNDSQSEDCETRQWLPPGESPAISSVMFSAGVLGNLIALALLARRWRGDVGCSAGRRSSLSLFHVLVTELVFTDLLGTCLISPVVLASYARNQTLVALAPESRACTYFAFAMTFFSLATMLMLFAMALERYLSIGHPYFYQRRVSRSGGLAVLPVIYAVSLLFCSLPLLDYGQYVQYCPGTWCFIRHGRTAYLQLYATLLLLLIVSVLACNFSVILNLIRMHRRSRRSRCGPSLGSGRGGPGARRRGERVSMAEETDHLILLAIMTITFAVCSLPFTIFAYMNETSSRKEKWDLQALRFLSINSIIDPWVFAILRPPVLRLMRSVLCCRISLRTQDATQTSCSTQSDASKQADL
Method: Experimental Example 1.1: hEP2 cAMP Assay
as §1, with “hEP2” for “hEP4”, “hours. The” for “hours.”
as §2
as §3, with “relative” for “compared”

[3] = tested on: CT26 cells; assay: Anticancer efficacy in mouse-derived colorectal carcinoma CT26 tumor model (tumor size); assay type: in vivo
Method: Experimental Example 2.1. Evaluation of Anticancer Efficacy of Combination Administration in Mouse-Derived Colorectal Carcinoma Tumor Model: CT26
(§4) CT26 cells were subcultured and maintained in a cell incubator (CO2 incubator) under 37° C., 500 CO2 conditions using RPMI-1640 medium containing 10% FBS (fetal bovine serum). For the tumor animal model, CT26 cells were resuspended at a concentration of 533 10^5 cells/100 μL, and 100 μL per each mouse was transplanted into the subcutaneous region of the right flank of 6 to 7 week-old BALB/c mice (Shanghai Lingchang Biotechnology Co., Ltd, Shanghai) to prepare a CT26 tumor model.
The tumor size was calculated by measuring the short axis and the long axis using a vernier caliper and substituting them into Equation 1 below.
tumor size (volume, mm^3)=(short axis, mm)^2×(long axis, mm)×0.5 [Equation 1]
(§5) When the tumor size reached an average of 70 to 100 mm^3, the mice were randomly divided into groups for the evaluation of drug efficacy (average tumor size per group=79 mm^3). The drug efficacy was evaluated by substituting the measured tumor size into Equation 2 to calculate and compare the tumor growth inhibitory ability between groups.
tumor growth inhibitory ability=[{(control group tumor size at the time of measurement,C)−(control group tumor size at the start of administration,C0)}−{(test group tumor size at the time of measurement,T)−(test group tumor size at the start of administration,T0)}]/{(control group tumor size at the time of measurement,C)−(control group tumor size at the start of administration,C0)} [Equation 2]
Drug administration was carried out for 12 days from the day after the test groups were grouped into a group treated with A01 (Example 34b), a group treated with an anti-PD-1 antibody, an immune checkpoint inhibitor, and a group treated with A01 and an anti-PD-1 antibody in combination. The anti-PD-1 antibody (BioXcell, Cat #BP0146) was diluted in PBS and intraperitoneally administered once every 3 days at a concentration of 200 μg/mouse. […]

[4] = Body weight of mice in CT26 tumor model; assay type: in vivo, mouse; settings: BALB/c mice
Method: as §4
(§6) Drug administration was carried out for 12 days from the day after the test groups were grouped into a group treated with A01 (Example 34b), a group treated with an anti-PD-1 antibody, an immune checkpoint inhibitor, and a group treated with A01 and an anti-PD-1 antibody in combination. The anti-PD-1 antibody (BioXcell, Cat #BP0146) was diluted in PBS and intraperitoneally administered once every 3 days at a concentration of 200 μg/mouse. A01 was used as an excipient by adding Tween 80 to 0.5% methycellulose (40000 cp) aqueous solution until it reached 0.2%, and A01 was suspended as an excipient and orally administered daily at a concentration of 150 mg/kg.

[5] = Body weight of mice in MC38 tumor model; assay type: in vivo, mouse; settings: C57B/6 mice
Method: as §4, with “MC38” for “CT26”, “subcultured” for “subcultured and maintained”, “5%” for “500”, “DMEM” for “RPMI-1640”, “1×10^6” for “533 10^5”, “C57B/6” for “BALB/c”
as §6, with “18” for “12”, “A02” for “A01”, “1b),” for “34b),”

[6] = tested on: MC38 cells; assay: Anticancer efficacy in mouse-derived colorectal carcinoma MC38 tumor model (tumor size); assay type: in vivo
Method: Experimental Example 2.2. Evaluation of Anticancer Efficacy of Combination Administration in Mouse-Derived Colorectal Carcinoma Tumor Model: MC38
as §4, with “MC38” for “CT26”, “subcultured” for “subcultured and maintained”, “5%” for “500”, “DMEM” for “RPMI-1640”, “1×10^6” for “533 10^5”, “C57B/6” for “BALB/c”
The tumor size was calculated by measuring in the same manner as in Experimental Example 2.1.
as §5, with “size=91” for “size per group=79”, “2 of Experimental Example 2.1” for “2”
as §6, with “18” for “12”, “A02” for “A01”, “1b),” for “34b),”

IC50 [1]: ≤ 500 nM
SMILES: COc1cc(-c2ccc(Cc3c(C)sc(C)c3C(=O)NC3CC4(C3)CC(C(=O)O)C4)cc2)cc(N2CCC2=O)c1 [Example 63, (2R, 4R, 6R)-6-(4-((3′-methoxy-5′-(2-oxoazetidin-1-yl)-[1,1′-biphenyl]-4-yl)methyl)-2,5-dimethylthiophene-3-carboxamido)spiro[3.3]heptane-2-carboxylic acid]

IC50 [1]: > 10000 nM
IC50 [2]: > 10000 nM
SMILES: O=C(N[C@]12C[C@](C(=O)O)(C1)C2)c1csc2ccn(Cc3ccc(-c4ccccc4)cc3)c12 [Example 87, 3-(4-([1,1′-biphenyl]-4-ylmethyl)-4H-thieno[3,2-b]pyrrole-3-carboxamido)bicyclo[1.1.1]pentane-1-carboxylic acid]

SMILES: COc1cc(F)cc(-c2ccc(Cc3c(C)sc(C)c3C(=O)NC3CC4(C3)CC(C(=O)O)C4)cc2)c1 (stereo not shown) [Example A01]
tumor growth inhibition rate compared to control group ([3]; 12 days administration, A01 150 mg/kg oral daily, anti-PD-1 antibody 200 μg/mouse i.p. once every 3 days, Equation 2): 38.5%
tumor size at end point of the test ([3]; BALB/c mice, 12 days administration, A01 150 mg/kg oral daily, anti-PD-1 antibody 200 μg/mouse i.p. once every 3 days): 1092.6±237.5 mm^3
tumor size at start point of the test ([3]; BALB/c mice, start of drug administration): 79.4±2.3 mm^3
body weight at end point of the test ([4]; 12 days administration, A01 150 mg/kg oral daily, anti-PD-1 antibody 200 μg/mouse i.p. once every 3 days): 22.2 ± 0.6 g
body weight at start point of the test ([4]; start of drug administration): 20.4 ± 0.4 g

SMILES: Cc1sc(C)c(C(=O)NC2CC3(C2)CC(C(=O)O)C3)c1Cc1ccc(-c2ccccc2)cc1 (stereo not shown) [Example A02]
body weight at end point of the test ([5]; 18 days administration, A02 150 mg/kg oral daily, anti-PD-1 antibody 200 μg/mouse i.p. once every 3 days): 22.0 ± 0.4 g
body weight at start point of the test ([5]; start of drug administration): 19.1 ± 0.2 g
tumor growth inhibition rate compared to control group ([6]; 18 days administration, A02 150 mg/kg oral daily, anti-PD-1 antibody 200 μg/mouse i.p. once every 3 days, Equation 2): 32.7%
tumor size at end point of the test ([6]; C57B/6 mice, 18 days administration, A02 150 mg/kg oral daily, anti-PD-1 antibody 200 μg/mouse i.p. once every 3 days): 1711.0±236.4 mm^3
tumor size at start point of the test ([6]; C57B/6 mice, start of drug administration): 91.5±3.1 mm^3
